Source: patent US10064922B2, “Compositions and methods for immune tolerance induction” (The Research Foundation for The State University of New York, priority 2011, dated 2018)

System: HA mice
Experiment: Antigen specificity: ovalbumin given concomitantly with FVIII or FVIII-PS/PC at a distant site
Type: in vivo
Settings: ovalbumin concomitantly administered at a distant anatomical site; ±SEM
Source text: During the reverse vaccination strategy, it is desirable that the immunization should not interfere with the ability of the immune system to mount immune response against other antigens and pathogens. In order to investigate the antigen specificity and effect of immunization on the systemic immune suppression, another foreign antigen; ovalbumin (Ova) was concomitantly administered with either FVIII or FVIII-PS/PC complexes, but at a distant anatomical site.

With “Ova: ovalbumin, another foreign antigen given concomitantly at a distant anatomical site” the “Anti-FVIII Nab titers” value was “no anti-FVIII Nabs”.
